pEC50, pIC50: −log10 of the molar value. The source made the active and inactive calls. The rule behind the calls is not given here.
Tests used:
[1] = molecular target: T1, Probable G-protein coupled receptor 34 (Homo sapiens, UniProt Q9UPC5); assay: Antagonist activity at GPR34 (unknown origin) by Glosensor cAMP assay; format: functional
[2] = molecular target: T1, Probable G-protein coupled receptor 34; assay: Antagonist activity at GPR34 (unknown origin) by Tango assay; format: functional
[3] = Cytotoxicity against HEK293 cells incubated for 72 hrs by MTT assay; format: toxicity, cell-based; conditions: human
[4] = Cytotoxicity against human LX2 cells incubated for 72 hrs by MTT assay; format: toxicity, cell-based; conditions: LX-2 cells
[5] = Cytotoxicity against human BEAS-2B cells incubated for 72 hrs by MTT assay; format: toxicity, cell-based
[6] = Cytotoxicity against human HUVEC cells incubated for 72 hrs by MTT assay; format: toxicity, cell-based
[7] = Cytotoxicity against human Muller cells incubated for 72 hrs by MTT assay; format: toxicity, cell-based, Muller cell
[8] = Cytotoxicity against African green monkey COS-7 cells incubated for 72 hrs by MTT assay; format: toxicity, cell-based, Chlorocebus aethiops
[9] = molecular target: T2, Lysophosphatidic acid receptor 3 (Homo sapiens, UniProt Q9UBY5); assay: Agonist activity at LPAR3 (unknown origin); format: functional
T2 sequence (Q9UBY5 whole entry): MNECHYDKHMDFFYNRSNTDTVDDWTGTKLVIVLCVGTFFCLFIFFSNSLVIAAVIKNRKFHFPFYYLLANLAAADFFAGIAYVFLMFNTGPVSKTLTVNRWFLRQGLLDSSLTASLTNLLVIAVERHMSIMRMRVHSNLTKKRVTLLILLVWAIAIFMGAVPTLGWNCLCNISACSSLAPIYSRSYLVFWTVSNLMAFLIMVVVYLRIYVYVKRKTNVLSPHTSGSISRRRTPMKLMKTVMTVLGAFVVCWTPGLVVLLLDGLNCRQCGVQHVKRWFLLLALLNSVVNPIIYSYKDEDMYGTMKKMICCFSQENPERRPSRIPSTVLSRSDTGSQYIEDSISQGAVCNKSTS

[10] = molecular target: T3, Lysophosphatidic acid receptor 4 (Homo sapiens, UniProt Q99677); assay: Agonist activity at LPAR4 (unknown origin); format: functional
T3 sequence (Q99677 whole entry): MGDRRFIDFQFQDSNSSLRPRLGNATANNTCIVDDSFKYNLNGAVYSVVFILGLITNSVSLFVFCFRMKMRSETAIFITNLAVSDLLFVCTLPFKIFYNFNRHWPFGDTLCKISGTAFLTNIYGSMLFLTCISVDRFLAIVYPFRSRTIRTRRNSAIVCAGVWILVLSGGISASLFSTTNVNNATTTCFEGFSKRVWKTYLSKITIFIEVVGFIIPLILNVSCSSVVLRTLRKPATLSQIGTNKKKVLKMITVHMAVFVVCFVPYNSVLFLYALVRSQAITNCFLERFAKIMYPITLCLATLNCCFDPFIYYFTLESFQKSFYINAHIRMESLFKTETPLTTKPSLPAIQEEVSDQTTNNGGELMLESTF

[11] = molecular target: T4, P2Y purinoceptor 12 (Homo sapiens, UniProt Q9H244); assay: Agonist activity at P2Y12R (unknown origin); format: functional
T4 sequence (Q9H244 whole entry): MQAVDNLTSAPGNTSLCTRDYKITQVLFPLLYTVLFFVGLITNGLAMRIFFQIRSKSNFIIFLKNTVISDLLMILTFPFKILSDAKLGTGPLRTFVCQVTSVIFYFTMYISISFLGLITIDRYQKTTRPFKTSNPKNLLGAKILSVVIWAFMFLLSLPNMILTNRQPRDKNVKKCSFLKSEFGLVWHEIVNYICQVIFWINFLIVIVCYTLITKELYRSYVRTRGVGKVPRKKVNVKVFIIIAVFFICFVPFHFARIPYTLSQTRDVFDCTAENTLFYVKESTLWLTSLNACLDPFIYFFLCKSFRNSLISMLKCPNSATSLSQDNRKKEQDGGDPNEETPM

[12] = molecular target: T5, Cannabinoid receptor 2 (Homo sapiens, UniProt P34972); assay: Agonist activity at CB2 (unknown origin); format: functional
T5 sequence (P34972 whole entry): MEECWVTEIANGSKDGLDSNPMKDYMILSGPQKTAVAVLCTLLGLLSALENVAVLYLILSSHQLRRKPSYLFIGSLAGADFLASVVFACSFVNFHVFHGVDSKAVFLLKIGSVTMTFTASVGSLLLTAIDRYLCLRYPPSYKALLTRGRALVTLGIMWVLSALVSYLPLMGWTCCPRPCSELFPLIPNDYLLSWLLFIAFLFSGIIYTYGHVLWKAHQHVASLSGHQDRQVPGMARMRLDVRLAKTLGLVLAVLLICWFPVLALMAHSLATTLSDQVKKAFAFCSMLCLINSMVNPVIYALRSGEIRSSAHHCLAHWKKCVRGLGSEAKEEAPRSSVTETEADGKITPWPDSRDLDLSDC

[13] = molecular target: T6, C-X-C chemokine receptor type 5 (Homo sapiens, UniProt P32302); assay: Agonist activity at CXCR5 (unknown origin); format: functional
T6 sequence (P32302 whole entry): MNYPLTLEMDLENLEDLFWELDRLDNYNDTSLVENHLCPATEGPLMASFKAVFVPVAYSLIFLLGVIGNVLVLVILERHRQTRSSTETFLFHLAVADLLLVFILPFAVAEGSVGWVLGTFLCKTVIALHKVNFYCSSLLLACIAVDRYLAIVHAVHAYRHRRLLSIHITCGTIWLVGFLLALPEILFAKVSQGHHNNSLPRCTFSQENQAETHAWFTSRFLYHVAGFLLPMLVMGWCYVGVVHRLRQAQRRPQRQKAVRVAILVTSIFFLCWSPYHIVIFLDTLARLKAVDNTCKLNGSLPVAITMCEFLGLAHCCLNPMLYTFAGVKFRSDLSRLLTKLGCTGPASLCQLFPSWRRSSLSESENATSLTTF

[14] = molecular target: T7, Adenosine receptor A3 (Homo sapiens, UniProt P0DMS8); assay: Agonist activity at A3AR (unknown origin); format: functional
T7 sequence (P0DMS8 whole entry): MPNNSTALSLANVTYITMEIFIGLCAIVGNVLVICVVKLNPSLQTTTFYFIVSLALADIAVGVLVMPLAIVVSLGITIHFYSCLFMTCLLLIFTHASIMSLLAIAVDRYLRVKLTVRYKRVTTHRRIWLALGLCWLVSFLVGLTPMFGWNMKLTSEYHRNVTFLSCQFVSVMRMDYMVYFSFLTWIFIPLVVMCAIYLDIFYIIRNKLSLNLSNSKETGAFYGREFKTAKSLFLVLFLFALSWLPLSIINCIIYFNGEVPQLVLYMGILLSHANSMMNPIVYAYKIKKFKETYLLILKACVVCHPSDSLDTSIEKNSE

[15] = molecular target: T2, Lysophosphatidic acid receptor 3; assay: Antagonist activity at LPAR3 (unknown origin); format: functional
[16] = molecular target: T3, Lysophosphatidic acid receptor 4; assay: Antagonist activity at LPAR4 (unknown origin); format: functional
[17] = molecular target: T4, P2Y purinoceptor 12; assay: Antagonist activity at P2Y12R (unknown origin); format: functional
[18] = molecular target: T5, Cannabinoid receptor 2; assay: Antagonist activity at CB2 (unknown origin); format: functional
[19] = molecular target: T6, C-X-C chemokine receptor type 5; assay: Antagonist activity at CXCR5 (unknown origin); format: functional
[20] = molecular target: T7, Adenosine receptor A3; assay: Antagonist activity at A3AR (unknown origin); format: functional
[21] = Acute toxicity in C57BL/6 mouse assessed as animal death at 200 mg/kg, ip; format: organism-based; conditions: in vivo
[22] = Toxicity in C57BL/6 mouse assessed as body weight change at 100 mg/kg, ip bid for 6 days consecutively; format: organism-based; conditions: in vivo, 144 h, time 6 day
[23] = Toxicity in C57BL/6 mouse assessed as indications of organ damage at 100 mg/kg, ip bid for 6 days consecutively; format: organism-based; conditions: in vivo, 144 h, time 6 day
[24] = tested on: Mus musculus; assay: Antinociceptive activity in mouse model of SNI-induced neuropathic pain assessed as reduction in mechanical allodynia at 10 to 20 mg/kg, ip bid; format: functional, organism-based; conditions: dose 10-20 mg/kg

T1 sequence (Q9UPC5 whole entry): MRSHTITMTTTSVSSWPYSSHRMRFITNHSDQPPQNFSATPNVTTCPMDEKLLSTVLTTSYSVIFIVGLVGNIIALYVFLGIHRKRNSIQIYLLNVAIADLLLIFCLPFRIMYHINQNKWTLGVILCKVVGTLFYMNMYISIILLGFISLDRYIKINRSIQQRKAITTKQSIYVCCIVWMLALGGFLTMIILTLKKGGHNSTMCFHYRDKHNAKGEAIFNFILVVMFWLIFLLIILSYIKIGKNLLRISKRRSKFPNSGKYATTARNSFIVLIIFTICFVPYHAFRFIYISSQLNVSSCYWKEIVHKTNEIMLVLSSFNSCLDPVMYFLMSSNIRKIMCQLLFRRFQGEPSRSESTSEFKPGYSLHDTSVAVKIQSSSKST

Question: With `COc1cccc(-c2ccc(OCC(=O)N[C@@H](Cc3ccc(OCc4ccccc4)cc3)C(=O)O)cc2)c1` as the compound, how does the pIC50 [1] read?
Answer: < 4.52

Question: With `O=C(COc1ccc(-c2cccc(Cl)c2)cc1)N[C@@H](Cc1ccccc1)C(=O)O` as the compound, how does the pIC50 [1] read?
Answer: < 4.52

Question: With `O=C(COc1ccc(-c2cccc(Cl)c2)cc1)N[C@@H](CC1CCCCC1)C(=O)O` as the compound, how does the pIC50 [1] read?
Answer: < 4.52

Question: With `O=C(COc1ccc(-c2cccc(C(F)(F)F)c2)cc1)N[C@@H](Cc1ccc(OCc2ccccc2)cc1)C(=O)O` as the compound, how does the pIC50 [1] read?
Answer: 5.88

Question: With `O=C(COc1cccnc1)N[C@@H](Cc1ccc(OCc2ccccc2)cc1)C(=O)O` as the compound, how does the pIC50 [1] read?
Answer: < 4.52

Question: With `O=C(COc1ccc(Cl)cc1)N[C@@H](Cc1ccc(OCc2ccccc2)cc1)C(=O)O` as the compound, how does the pIC50 [1] read?
Answer: < 4.52

Question: With `N#Cc1cccc(OCC(=O)N[C@@H](Cc2ccc(OCc3ccccc3)cc2)C(=O)O)c1` as the compound, how does the pIC50 [1] read?
Answer: 4.76

Question: With `NC(=O)[C@H](Cc1ccc(OCc2ccccc2)cc1)NC(=O)COc1ccc(-c2cccc(Cl)c2)cc1` as the compound, how does the pIC50 [1] read?
Answer: < 4.52

Question: With `Cc1ccc(OCC(=O)N[C@@H](Cc2ccc(OCc3ccccc3)cc2)C(=O)O)cc1` as the compound, how does the pIC50 [1] read?
Answer: < 4.52

Question: With `O=C(COc1ccc(-c2ccc(Cl)cc2)cc1)N[C@@H](Cc1ccc(OCc2ccccc2)cc1)C(=O)O` as the compound, how does the pIC50 [1] read?
Answer: 5.80

Question: With `O=C(COc1cccc(F)c1)N[C@@H](Cc1ccc(OCc2ccccc2)cc1)C(=O)O` as the compound, how does the pIC50 [1] read?
Answer: 4.86

Question: With `CC(C)c1ccc(OCC(=O)N[C@@H](Cc2ccc(OCc3ccccc3)cc2)C(=O)O)cc1` as the compound, how does the pIC50 [1] read?
Answer: < 4.52

Question: With `O=C(COc1ccc(F)cc1)N[C@@H](Cc1ccc(OCc2ccccc2)cc1)C(=O)O` as the compound, how does the pIC50 [1] read?
Answer: 4.93

Question: With `COC(=O)[C@H](Cc1ccc(OCc2ccccc2)cc1)NC(=O)COc1ccc(-c2cccc(Cl)c2)cc1` as the compound, how does the pIC50 [1] read?
Answer: < 4.52

Question: With `O=C(COc1ccccc1)N[C@@H](Cc1ccc(OCc2ccccc2)cc1)C(=O)O` as the compound, how does the pIC50 [1] read?
Answer: < 4.52

Question: With `O=C(COc1ccc(-c2cccc(Cl)c2)cc1)N[C@@H](Cc1ccc(OCc2ccccc2)cc1)C(=O)O` as the compound, how does the pIC50 [1] read?
Answer: 6.17

Question: What about the pIC50 [2] of the same compound?
Answer: 7.23

Question: And the IC50 at 72 h [3]?
Answer: > 30 µM

Question: And the IC50 at 72 h [4]?
Answer: > 30 µM

Question: What about the IC50 at 72 h [5] of the same compound?
Answer: > 30 µM

Question: What about the IC50 at 72 h [6] of the same compound?
Answer: > 30 µM

Question: What about the IC50 at 72 h [7] of the same compound?
Answer: > 30 µM

Question: And the IC50 at 72 h [8]?
Answer: > 30 µM

Question: What about the pEC50 [9] of the same compound?
Answer: < 5.00

Question: And the pEC50 [10]?
Answer: < 5.00

Question: And the pEC50 [11]?
Answer: < 5.00

Question: And the pEC50 [12]?
Answer: < 5.00

Question: And the pEC50 [13]?
Answer: < 5.00

Question: What about the pEC50 [14] of the same compound?
Answer: < 5.00

Question: And the pEC50 [15]?
Answer: < 5.00

Question: What about the pEC50 [16] of the same compound?
Answer: < 5.00

Question: And the pEC50 [17]?
Answer: < 5.00

Question: And the pEC50 [18]?
Answer: < 5.00

Question: And the pEC50 [19]?
Answer: < 5.00

Question: And the pEC50 [20]?
Answer: < 5.00

Question: And the Activity [21]?
Answer: Non-Toxic

Question: And the Activity [22]?
Answer: Non-Toxic

Question: And the Activity [23]?
Answer: Non-Toxic

Question: What about the Activity [24] of the same compound?
Answer: Active

Question: With `O=C(COc1ccccc1F)N[C@@H](Cc1ccc(OCc2ccccc2)cc1)C(=O)O` as the compound, how does the pIC50 [1] read?
Answer: < 4.52

Question: With `O=C(COc1ccc(-c2cccc(Cl)c2)cc1)N[C@H](Cc1ccc(OCc2ccccc2)cc1)C(=O)O` as the compound, how does the pIC50 [1] read?
Answer: 5.53

Question: With `Cn1nccc1-c1ccc(OCC(=O)N[C@@H](Cc2ccc(OCc3ccccc3)cc2)C(=O)O)cc1` as the compound, how does the pIC50 [1] read?
Answer: < 4.52

Question: With `C[C@H](NC(=O)COc1ccc(-c2cccc(Cl)c2)cc1)C(=O)O` as the compound, how does the pIC50 [1] read?
Answer: < 4.52

Question: With `O=C(COc1ccc(-c2cccc(F)c2)cc1)N[C@@H](Cc1ccc(OCc2ccccc2)cc1)C(=O)O` as the compound, how does the pIC50 [1] read?
Answer: 5.89

Question: With `O=C(COc1ccc(-c2ccccc2F)cc1)N[C@@H](Cc1ccc(OCc2ccccc2)cc1)C(=O)O` as the compound, how does the pIC50 [1] read?
Answer: < 4.52

Question: With `COc1cccc(OCC(=O)N[C@@H](Cc2ccc(OCc3ccccc3)cc2)C(=O)O)c1` as the compound, how does the pIC50 [1] read?
Answer: < 4.52

Question: With `O=C(COc1ccc(-c2ccc(F)cc2)cc1)N[C@@H](Cc1ccc(OCc2ccccc2)cc1)C(=O)O` as the compound, how does the pIC50 [1] read?
Answer: 6.01

Question: With `O=C(COc1ccc(-c2cccc(Cl)c2)cc1)N[C@@H](Cc1ccc(O)cc1)C(=O)O` as the compound, how does the pIC50 [1] read?
Answer: < 4.52
